Patent US11215608B2, “Methods of determining cellular chemosensitivity” (Dana-Farber Cancer Institute, Inc., priority 2006, dated 2022)
Ends that are not written are not given here. Peptide text beside a SMILES is read from it. * marks the point of attachment. Cbz = O=C(OCc1ccccc1)*; CH2F = FC*

Columns and labels:
SU-DHL8 = test: BH3 profiling, cytochrome c release from lymphoma mitochondria; format: biochemical; details: SU-DHL-8
Excerpt: (§1) BH3 profiling allows for the prediction of response of cancer cells to anti-cancer therapeutics. For the purposes of this application, therapeutics can be divided into those that target anti-apoptotic BCL-2 proteins, and conventional agents. As a model test system, four lymphoma cell lines SU-DHL4, SU-DHL6, SU-DHL8, and SU-DHL 10 were employed. To perform BH3 profiling, the ability of a panel of sensitizer peptides to induce mitochondrial outer membrane permeabilization (MOMP) in mitochondria isolated from the lymphoma cells were tested. […] MOMP was measured by quantifying cytochrome c release by ELISA.

[1] = system: mitochondria from FL5.12 cells; test: Cytochrome c release from FL5.12 mitochondria; format: biochemical, murine
Description: (§2) Mitochondria were purified from liver and FL5.12cells as previously described (Letai et al., 2002). Mitochondria were purified from leukemia cells and 2B4 cells as previously described for FL5.12 cells. Mitochondria were incubated with treatments for 45 (mouse liver mitochondria) or 35 minutes (FL5.12, 2B4, and leukemic mitochondria). Release of cytochrome c was determined by a comparison of cytochrome c in the pellet and supernatant following treatment, quantitated by ELISA (R&D systems).
Mitochondria were isolated from wt FL5.12 cells and FL5.12-BCL-2 cells in the presence of IL-3, and from FL5.12-BCL-2 cells following 24 hours of IL-3 deprivation. […] Mitochondrial pellets were subjected to chemical crosslinking as previously described (Letai et al., 2002).

leukemic mitochondria = test: Cytochrome c release from BCL-2 dependent leukemia mitochondria; format: biochemical, mouse
Description: as §2, with “systems). When results of multiple experiments were averaged, results from solvent-only (DMSO) treatments values were subtracted from each, so that 0 release reflects that observed in solvent-only treatments.” for “systems).”
Leukemia prone mice were generated as previously described (Letai, 2004). Mouse experimental protocols conform to the relevant regulatory standards and were approved by the Dana-Farber Cancer Institute Animal Care and Use Committee.
Previous results have described a mouse acute lymphocytic leukemia model in which c-myc is constitutively expressed and human BCL-2 is repressibly expressed. In this model, when BCL-2 transgene expression is eliminated by administration of doxycycline, the leukemic cells undergo apoptosis, resulting in rapid resolution of the leukemia (Letai, 2004). This provides an ideal in vivo model of a BCL-2 dependent cancer. It was hypothesized that dependence on BCL-2 was due to a similar mechanism to that of the IL-3 deprived FL5.12-BCL-2 cells—that is, a death signal was being initiated and carried by an activator BH3 molecule, but BCL-2 was binding it and preventing its interaction with multidomain proapoptotic proteins.
Mitochondria were isolated from leukemia cells and exposed to sensitizer BH3 peptides. Subsequently, cytochrome c release was measured. As an internal control, mitochondria were isolated from liver from the leukemic mice in parallel (FIG. 8A).

mouse liver mitochondria = test: Cytochrome c release from mouse liver mitochondria; format: biochemical; details: no tBID, also at 10-fold higher concentrations
Description: as §2, with “systems). When results of multiple experiments were averaged, results from solvent-only (DMSO) treatments values were subtracted from each, so that 0 release reflects that observed in solvent-only treatments.” for “systems).”
To test if selective binding corresponded to ability of individual BH3 domains to selectively antagonize antiapoptotic function, a purified mitochondrial system was constructed in which the critical apoptosis decision making molecular machinery was reconstituted. […] The multidomain proapoptotic function was provided by the BAK which resides in mouse liver Mitochondria; mouse liver mitochondria contain no detectable BAX protein (Letai et al., 2002). The dominant antiapoptotic function was provided by one of the five different recombinant antiapoptotic proteins used in the binding assays. BH3 peptides provided the sensitizer function.
Furthermore, when the panel of sensitizer BH3 peptides was tested in the presence of the antiapoptotic protein BCL-XL, there was still no cytochrome c release, formally ruling out the possibility that the BH3 peptides were somehow directly converting antiapoptotic proteins to a proapoptotic function (FIG. 2). To induce MOMP and cytochrome c release, there appears to be an absolute requirement for an activator function, here provided by the tBID protein.

CLL mitochondria = test: Cytochrome c release from CLL mitochondria; format: biochemical, human; details: peptides or compounds 100 μM
Description: Alternatively, mitochondria were purified from freshly isolated CLL cells and cell lines by mechanical disruption followed by differential centrifugation, as previously described (Letai et al., 2002). Mitochondrial suspensions were made at 0.5 mg protein/ml, except for the case of ABT-737 and negative control enantiomer treatments, where 0.1 mg/ml was used. Release of cytochrome c was determined by a comparison of cytochrome c in the pellet and supernatant quantitated by ELISA (R&D systems).
CLL mitochondria were incubated with BH3 peptides as well as ABT-737 and negative control enantiomer (FIG. 14). […] This pattern is diagnostic of mitochondrial BCL-2 dependence. […] Since the BH3 peptides in the sensitizer panel lack the ability to directly activate BAX and BAK, these experiments also implicated the presence of an activator molecule constitutively sequestered by BCL-2 in CLL.

SU-DHL6 = test: BH3 profiling, cytochrome c release from lymphoma mitochondria; format: biochemical; details: SU-DHL 6
Excerpt: as §1
SU-DHL4 and SU-DHL6 a “primed” phenotype, based on the sensitivity to sensitizer BH3 peptides. […] SU-DHL-10 responded poorly to both sensitizer and activator peptides, indicating the loss of the effector arm.

CLL cells = test: Annexin-V death assay of freshly isolated primary CLL cells; format: cell-based, human
Description: Cells were stained with fluorescent conjugates of Annexin-V (BioVision) and propidium iodide (PI) and analyzed on a FACSCalibur machine (Becton-Dickinson).
15 ml of blood in heparin treated tubes was obtained from each anonymous CLL patient and processed without freezing. Equal volume of media (RPMI medium, 10% […], supplemented with […] and 10 mg/ml transferrin) was mixed with each sample and CLL cells isolated by centrifugation through Ficoll-PAQUE Plus (Amersham). Cells were washed twice in media and cultured at a density of 2.0×10^6 cells/ml for up to 48 hours. Samples for FIG. 11A were obtained from 24 consecutive patients identified with WBC >50,000/μl. All guidelines and regulations were followed in accordance with IRB protocols #99-224 (Dana-Farber Cancer Institute). Normal PBMC's were obtained from tubing discarded following platelet donation by anonymous normal donors and processed as above, except cultured without insulin and transferrin.
Experimental replicates were performed using lysates or mitochondria from different CLL samples. In main body, where a P value is given, it was obtained by using a two-tailed Students t-test, and P<0.05 was considered statistically significant. GraphPad Prism software was used to determine EC50 values by non-linear dose-response curve fitting and to perform Mann-Whitney nonparametric testing in Table 5.
Freshly isolated primary CLL cells were incubated with ABT-737 or negative control enantiomer. After 48 hours, death was assessed using Annexin-V staining.

[2] = FL5.12-BCL-2 cells deprived of IL-3 for 24 hours, peptides 10 μM

Compound: CC[C@H](C)[C@H](NC(=O)[C@H](CC(N)=O)NC(=O)[C@H](CCCNC(=N)N)NC(=O)[C@@H](NC(=O)[C@@H](NC(=O)[C@H](CC(=O)O)NC(=O)[C@H](CCC(=O)O)NC(=O)CCCCCNC(=S)Nc1ccc2c(c1)C(=O)OC21c2ccc(O)cc2Oc2cc(O)ccc21)[C@@H](C)CC)[C@@H](C)CC)C(=O)N[C@@H](C)C(=O)N[C@@H](CCCNC(=N)N)C(=O)N[C@@H](Cc1c[nH]cn1)C(=O)N[C@@H](CC(C)C)C(=O)N[C@@H](C)C(=O)N[C@@H](CCC(N)=O)C(=O)N[C@H](C(=O)NCC(=O)N[C@@H](CC(=O)O)C(=O)N[C@@H](CO)C(=O)N[C@@H](CCSC)C(=O)N[C@@H](CC(=O)O)C(=O)N[C@@H](CCCNC(=N)N)C(=O)O)C(C)C [BID]
- mitochondrial sensitivity to BH3 peptide (SU-DHL8): responding strongly
- cytochrome c release [1, 2]: sensitivity to 10 μM BID BH3 is restored
- cytochrome c release ([1]; FL5.12-BCL-2 cells with IL-3, peptides 10 μM): BCL-2 overexpression inhibits release
- cytochrome c release ([1]; wt FL5.12 cells with IL-3, peptides 10 uM): potently induce cytochrome c release

Compound: CC[C@H](C)[C@H](NC(=O)[C@H](CS)NC(=O)[C@H](C)NC(=O)[C@H](CC(C)C)NC(=O)[C@H](CCCNC(=N)N)NC(=O)[C@H](CC(C)C)NC(=O)[C@H](C)NC(=O)[C@H](CC(C)C)NC(=O)[C@H](C)NC(=O)[C@H](CC(=O)O)NC(=O)[C@H](CO)NC(=O)CNC(=O)[C@H](CCC(=O)O)NC(=O)[C@H](CCSC)NC(=O)CCCCCNC(=S)Nc1ccc2c(c1)C(=O)OC21c2ccc(O)cc2Oc2cc(O)ccc21)C(=O)NCC(=O)N[C@@H](CC(=O)O)C(=O)N[C@@H](CCC(=O)O)C(=O)N[C@@H](CCSC)C(=O)N[C@@H](CC(=O)O)C(=O)N[C@H](C(=O)O)C(C)C [BIK]
- cytochrome c release [1, 2]: does not induce cytochrome c release
- cytochrome c release (leukemic mitochondria): capable of inducing near total cytochrome c release
- cytochrome c release by peptide alone (mouse liver mitochondria): none of the sensitizer BH3 peptides by themselves can induce cytochrome c release significantly above background

Compound: CC[C@H](C)[C@H](NC(=O)[C@H](CC(C)C)NC(=O)[C@H](CCC(N)=O)NC(=O)[C@H](CC(C)C)NC(=O)[C@H](CCCCN)NC(=O)[C@H](CCCNC(=N)N)NC(=O)[C@H](C)NC(=O)[C@@H](NC(=O)[C@H](CCC(N)=O)NC(=O)[C@@H](NC(=O)[C@H](CCC(=O)O)NC(=O)[C@H](C)NC(=O)[C@H](CCC(N)=O)NC(=O)[C@H](Cc1c[nH]cn1)NC(=O)CCCCCNC(=S)Nc1ccc2c(c1)C(=O)OC21c2ccc(O)cc2Oc2cc(O)ccc21)C(C)C)[C@@H](C)CC)C(=O)N[C@@H](C)C(=O)N[C@@H](CC(=O)O)C(=O)N[C@@H](CCC(N)=O)C(=O)N[C@@H](Cc1ccccc1)C(=O)N[C@@H](Cc1c[nH]cn1)C(=O)N[C@@H](CCCNC(=N)N)C(=O)O [BMF]
- cytochrome c release (CLL mitochondria): induce cytochrome c release
- mitochondrial sensitivity to BH3 peptide (SU-DHL6): strong
- cytochrome c release (leukemic mitochondria): capable of inducing near total cytochrome c release
- cytochrome c release by peptide alone (mouse liver mitochondria): none of the sensitizer BH3 peptides by themselves can induce cytochrome c release significantly above background

Compound: CC(C)C[C@H](NC(=O)[C@H](C)NC(=O)[C@H](CCCCN)NC(=O)[C@H](CC(C)C)NC(=O)[C@H](CCCNC(=N)N)NC(=O)[C@H](C)NC(=O)[C@H](C)NC(=O)[C@@H](NC(=O)[C@H](CC(C)C)NC(=O)[C@H](CCC(N)=O)NC(=O)[C@H](C)NC(=O)[C@H](C)NC(=O)[C@H](CO)NC(=O)[C@H](CO)NC(=O)CCCCCNC(=S)Nc1ccc2c(c1)C(=O)OC21c2ccc(O)cc2Oc2cc(O)ccc21)[C@@H](C)O)C(=O)NCC(=O)N[C@@H](CC(=O)O)C(=O)N[C@@H](CCC(=O)O)C(=O)N[C@@H](CC(C)C)C(=O)N[C@@H](Cc1c[nH]cn1)C(=O)N[C@@H](CCC(N)=O)C(=O)O [HRK]
- cytochrome c release (CLL mitochondria): do not
- cytochrome c release by peptide alone (mouse liver mitochondria): none of the sensitizer BH3 peptides by themselves can induce cytochrome c release significantly above background

Compound: CN(C)CC[C@@H](CSc1ccccc1)Nc1ccc(S(=O)(=O)NC(=O)c2ccc(N3CCN(Cc4ccccc4-c4ccc(Cl)cc4)CC3)cc2)cc1[N+](=O)[O-] [NCE]
- EC50 (CLL cells; twenty-four CLL samples, 48 hours, read-out: mean EC50, apoptosis of CLL cells): 0.574 µM

Compound: COC(=O)C[C@H](NC(=O)[C@H](C)NC(=O)[C@@H](NC(=O)OCc1ccccc1)C(C)C)C(=O)CF [ZVAD-fmk] (Cbz-Val-Ala-Asp(OMe)-CH2F)
- protection against ABT-737-induced death (CLL cells; co-treatment, 200 μM): protects against ABT-737-induced death

Compound: BADmut: point mutant (L→A) of BAD BH3, LWAAQRYGREARRMSDEFEGSFKGL (SEQ ID NO: 13), negative control (Chemically synthesized primer)
- cytochrome c release (CLL mitochondria): do not

Compound: BH3 domain peptide of BNIP3-a, VVEGEKEVEALKKSADWVSD (SEQ ID NO: 9) (not fully specified (N-terminus))
- cytochrome c release (CLL mitochondria): do not
- cytochrome c release by peptide alone (mouse liver mitochondria): none of the sensitizer BH3 peptides by themselves can induce cytochrome c release significantly above background

Compound: second BH3 domain peptide of murine NOXA, PADLKDECAQLRRIGDKVNL (SEQ ID NO: 7) (not fully specified (N-terminus)) [NOXA B]
- cytochrome c release by peptide alone (mouse liver mitochondria): none of the sensitizer BH3 peptides by themselves can induce cytochrome c release significantly above background
